{"source": "patent US6215002A", "about": "“Pyrrolopyrrolone derivatives as inhibitors of neutrophil elastase” (priority 1996, dated 2001)", "key": {"Intracellular elastase": {"test_system": "Intracellular elastase", "test": "Oral in vivo model using IL-8 induced lung infiltrates for the assessment of intracellular elastase inhibition (hamster test)", "details": "effective dose of less than 40 mg/kg, IL-8 intratracheal", "experimental": "An Oral in vivo Model Using IL-8 Induced Lung Infiltrates For the Assessment of Intracellular Elastase Inhibition\nAdult hamsters (100-150 g) are randomised into groups (n=4) and fasted overnight. Under gaseous anaesthetic (3% isofluorane) animals are dosed orally with 1 mL/100 g water as vehicle or containing predissolved compounds. Either at the same time, or subsequently under anaesthetic, animals are dosed intratracheally with 1 ug recombinant human IL-8 in 100 uL sterile saline. Six hours after IL-8 dosing animals are sacrificed using intrapertoneal pentobarbitone. The lungs are ravaged with 2×2.5 mL sterile saline and femurs are removed by dissection.\nIntracellular elastase is prepared from neutrophils collected by lavage and from femoral bone marrow. This is achieved by sonication of the neutrophils and centrifugation to yield intracellular granules. These are disrupted by freeze/thawing and sonication. Elastase and myeloperoxidase assays are then performed on these samples to assess the efficacy of the compounds and to normalise for neutrophil recovery."}, "[1]": {"molecular_target": "T1, human neutrophil elastase (Homo sapiens, UniProt P08246)", "T1 sequence (P08246 30-267)": "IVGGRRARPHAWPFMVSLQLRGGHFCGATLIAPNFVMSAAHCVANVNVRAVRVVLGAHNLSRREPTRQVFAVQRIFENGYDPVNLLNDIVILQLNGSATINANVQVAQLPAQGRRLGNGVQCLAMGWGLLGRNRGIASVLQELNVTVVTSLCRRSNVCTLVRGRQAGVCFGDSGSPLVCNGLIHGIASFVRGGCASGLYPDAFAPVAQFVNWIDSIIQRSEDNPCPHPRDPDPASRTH", "test": "In vitro assay of human neutrophil elastase (HNE)", "assay_type": "biochemical", "details": "pH 8.6, 15 min incubation at 30° C., MeO-succinyl-alanyl-alanyl-prolyl-valyl-p-nitroanilide substrate", "outline": "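Residual activity was taken as the 10 min rate of absorbance rise at 405 nm after adding 0.6 mM MeO-succinyl-AAPV-p-nitroanilide. Curve fitting of activity against concentration gave IC50.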"}, "[2]": {"details": "118 nM purified human neutrophil elastase, read-out: HNE IC50"}}, "note": "Structures can show the parent of a compound that is named as a salt. Where two headings read alike, the source gives them in different places."}
{"smiles": "CCN(CC)Cc1ccc(C(=O)N2CC[C@H]3[C@H]2[C@@H](C(C)C)C(=O)N3S(C)(=O)=O)cc1.Cl", "note": "(relative stereo) [Example 182, rel-(3R,3aR,6aS)-4-(4-Diethylaminomethyl-benzoyl)-3-isopropyl-1-methanesulfonyl-hexahydro-pyrrolo[3,2-b]pyrrol-2-one hydrochloride]", "values": [{"measurement": "duration of effect", "setting": "Intracellular elastase", "result": "at least 6 hours"}, {"measurement": "IC50", "setting": "[1]; [2]", "result": 43, "unit": "nM"}]}
{"smiles": "CC(=O)N1CCN(C/C=C/C(=O)N2CC[C@H]3[C@H]2[C@@H](C(C)C)C(=O)N3S(C)(=O)=O)CC1.Cl", "note": "(relative stereo) [Example 138, rel-(3R,3aR,6aS)-4-[4-(4-Acetyl-piperazin-1-yl)-but-2E-enoyl]-3-isopropyl-1-methanesulfonyl-hexahydro-pyrrolo[3,2-b]pyrrol-2-one hydrochloride]", "values": [{"measurement": "duration of effect", "setting": "Intracellular elastase", "result": "at least 6 hours"}, {"measurement": "IC50", "setting": "[1]; [2]", "result": 42, "unit": "nM"}]}
{"smiles": "CC(C)[C@H]1C(=O)N(S(C)(=O)=O)[C@H]2CCN(C(=O)c3ccc(CN4CCCCC4)cc3)[C@H]12.Cl", "note": "(relative stereo) [Example 174, rel-(3R,3aR,6aS)-3-Isopropyl-1-methanesulfonyl-4-(4-piperidin-1-ylmethyl-benzoyl)-hexahydro-pyrrolo[3,2-b]pyrrol-2-one hydrochloride]", "values": [{"measurement": "duration of effect", "setting": "Intracellular elastase", "result": "at least 6 hours"}, {"measurement": "IC50", "setting": "[1]; [2]", "result": 13, "unit": "nM"}]}
{"smiles": "CC(C)[C@H]1C(=O)N(S(C)(=O)=O)[C@H]2CCN(C(=O)c3cccc(CN4CCC(C(N)=O)CC4)c3)[C@H]12.Cl", "note": "(relative stereo) [Example 191, rel-1-[3-(6R-Isopropyl-4-methanesulfonyl-5-oxo-hexahydro-(3aS,6aR)-pyrrolo[3,2-b]pyrrole-1-carbonyl)-benzyl]-piperidine-4-carboxylic acid amide hydrochloride]", "values": [{"measurement": "duration of effect", "setting": "Intracellular elastase", "result": "at least 6 hours"}, {"measurement": "IC50", "setting": "[1]; [2]", "result": 41, "unit": "nM"}]}
{"smiles": "CC(C)[C@H]1C(=O)N(S(C)(=O)=O)[C@H]2CCN(C(=O)/C=C/c3ccc(CN4CCCCC4)cc3)[C@H]12.Cl", "note": "(relative stereo) [Example 158, rel-(3R,3aR,6aS)-3-Isopropyl-1-methanesulfonyl-4-[3-(4-piperidin-1-ylmethyl-phenyl)-(E)-acryloyl]-hexahydro-pyrrolo[3,2-b]pyrrol-2-one hydrochloride]", "values": [{"measurement": "duration of effect", "setting": "Intracellular elastase", "result": "at least 6 hours"}, {"measurement": "IC50", "setting": "[1]; [2]", "result": 19, "unit": "nM"}]}
{"smiles": "CC(C)[C@H]1C(=O)N(S(C)(=O)=O)[C@H]2CCN(C(=O)/C=C/CN3CCCCC3)[C@H]12.Cl", "note": "[Example 155, (3R,3aR,6aS)-3-Isopropyl-1-methanesulfonyl-4-(4-piperidin-1-yl-but-2E-enoyl)-hexahydro-pyrrolo[3,2-b]pyrrol-2-one hydrochloride]", "values": [{"measurement": "duration of effect", "setting": "Intracellular elastase", "result": "at least 6 hours"}]}
{"smiles": "CC(C)[C@@H]1C(=O)N(S(C)(=O)=O)[C@@H]2CCN(C(=O)/C=C/CN3CCCCC3)[C@H]21.Cl", "note": "[Example 154, (3S,3aS,6aR)-3-Isopropyl-1-methanesulfonyl-4-(4-piperidin-1-yl-but-2E-enoyl)-hexahydro-pyrrolo[3,2-b]pyrrol-2-one hydrochloride]", "values": [{"measurement": "duration of effect", "setting": "Intracellular elastase", "result": "at least 6 hours"}]}
{"smiles": "CC(C)[C@H]1C(=O)N(S(C)(=O)=O)[C@H]2CCN(C(=O)/C=C/CN3CCCCC3)[C@H]12.Cl", "note": "(relative stereo) [Example 135, rel-(3R,3aR,6aS)-3-Isopropyl-1-methanesulfonyl-4-(4-piperidin-1-yl-but-2E-enoyl)-hexahydro-pyrrolo[3,2-b]pyrrol-2-one hydrochloride]", "values": [{"measurement": "duration of effect", "setting": "Intracellular elastase", "result": "at least 6 hours"}]}
{"smiles": "CCC[C@H]1C(=O)N(S(=O)(=O)c2cccc3c2NCCC3)[C@H]2CCN(C(=O)OCc3ccccc3)[C@H]12", "note": "(relative stereo) [Example 50, rel-(3aS,6R,6aR)-5-Oxo-6-propyl-4-(1,2,3,4-tetrahydro-quinoline-8-sulfonyl-hexahydro-pyrrolo[3,2-b]pyrrole-1-carboxylic acid benzyl ester]", "values": [{"measurement": "IC50", "setting": "[1]; [2]", "result": 362, "unit": "nM"}]}
{"smiles": "CCC[C@H]1C(=O)N(S(C)(=O)=O)[C@H]2CCN(S(C)(=O)=O)[C@H]12", "note": "(relative stereo) [Example 26, rel-(3R,3aR,6aS)-1,4-Bis-methanesulfonyl-3-propyl-hexahydro-pyrrolo[3,2-b]pyrrol-2-one]", "values": [{"measurement": "IC50", "setting": "[1]; [2]", "result": 20, "unit": "nM"}]}
{"smiles": "CCCCS(=O)(=O)N1C(=O)[C@H](CCC)[C@@H]2[C@@H]1CCN2S(=O)(=O)CCCN1CCCCC1", "note": "(relative stereo) [Example 167, rel-(3R,3aR,6aS)-1-(Butane-1-sulfonyl)-4-(3-piperidin-1-yl-propane-1-sulfonyl)-3-propyl-hexahydro-pyrrolo[3,2-b]pyrrol-2-one DL-tartrate]", "values": [{"measurement": "IC50", "setting": "[1]; [2]", "result": 38, "unit": "nM"}]}
{"smiles": "CCC[C@H]1C(=O)N(S(C)(=O)=O)[C@H]2CCN(C(=O)CCCCCCCCCN3CCOCC3)[C@H]12", "note": "(relative stereo) [Example 64, rel-(3R,3aR,6aS)-1-Methanesulfonyl-4-(10-morpholin-4-yl-decanoyl)-3-propyl-hexahydro-pyrrolo[3,2-b]pyrrol-2-one DL-tartrate]", "values": [{"measurement": "IC50", "setting": "[1]; [2]", "result": 26, "unit": "nM"}]}
{"smiles": "CCC[C@H]1C(=O)N(S(=O)(=O)c2cccc3nsnc23)[C@H]2CCN(C(=O)CCN3CCCCC3)[C@H]12", "note": "(relative stereo) [Example 168, rel-(3R,3aR,6aS)-1-(Benzo[1,2,5]thiadiazole-4-sulfonyl)-4-(3-piperidin-1-yl-propionyl)-3-propyl-hexahydro-pyrrolo[3,2-b]pyrrol-2-one DL-tartrate]", "values": [{"measurement": "IC50", "setting": "[1]; [2]", "result": 208, "unit": "nM"}]}
{"smiles": "CCC[C@H]1C(=O)N(S(=O)(=O)C(C)C)[C@H]2CCN(S(=O)(=O)CCCN3CCCCC3)[C@H]12", "note": "(relative stereo) [Example 166, rel-(3R,3aR,6aS)-4-(3-Piperidin-1-yl-propane-1-sulfonyl)-1-(propane-2-sulfonyl)-3-propyl-hexahydro-pyrrolo[3,2-b]pyrrol-2-one DL-tartrate]", "values": [{"measurement": "IC50", "setting": "[1]; [2]", "result": 287, "unit": "nM"}]}
{"smiles": "CC(C)[C@H]1C(=O)N(S(C)(=O)=O)[C@H]2CCN(S(=O)(=O)c3ccc(S(C)(=O)=O)cc3)[C@H]12", "note": "(relative stereo) [Example 227, rel-(3R,3aR,6aS)-3-Isopropyl-1-methanesulfonyl-4-(4-methanesulfonyl-benzenesulfonyl)-hexahydro-pyrrolo[3,2-b]pyrrol-2-one]", "values": [{"measurement": "IC50", "setting": "[1]; [2]", "result": 118, "unit": "nM"}]}
{"smiles": "CCCCS(=O)(=O)N1C(=O)[C@H](CCC)[C@@H]2[C@@H]1CCN2C(=O)CCN1CCCCC1", "note": "(relative stereo) [Example 163, rel-(3R,3aR,6aS)-1-(Butane-1-sulfonyl)-4-(3-piperidin-1-yl-propionyl)-3-propyl-hexahydro-pyrrolo[3,2-b]pyrrol-2-one DL-tartrate]", "values": [{"measurement": "IC50", "setting": "[1]; [2]", "result": 103, "unit": "nM"}]}
{"smiles": "CCC[C@H]1C(=O)N(S(C)(=O)=O)[C@H]2CCN(C(=O)CCN3CCCCC3)[C@H]12", "note": "(relative stereo) [Example 30, rel-(3R,3aR,6aS)-1-Methanesulfonyl-4-(3-piperidin-1-yl-propionyl)-3-propyl-hexahydro-pyrrolo[3,2-b]pyrrol-2-one hydrochloride]", "values": [{"measurement": "IC50", "setting": "[1]; [2]", "result": 189, "unit": "nM"}]}
{"smiles": "CCC[C@H]1C(=O)N(S(C)(=O)=O)[C@H]2CCN(C(=O)CCCCCN(C)c3ccccc3)[C@H]12", "note": "(relative stereo) [Example 81, rel-(3R,3aR,6aS)-1-Methanesulfonyl-4-[6-(methyl-phenyl-amino)-hexanoyl]-3-propyl-hexahydro-pyrrolo[3,2-b]pyrrol-2-one hydrochloride]", "values": [{"measurement": "IC50", "setting": "[1]; [2]", "result": 67, "unit": "nM"}]}
{"smiles": "CCC[C@H]1C(=O)N(S(C)(=O)=O)[C@H]2CCN(C(=O)CCCCCN3C4CCCC3CC4)[C@H]12", "note": "(relative stereo) [Example 75, rel-(3R,3aR,6aS)-4-(6-8-Aza-bicyclo[3.2. 1]oct-8-yl-hexanoyl)-1-methanesulfonyl-3-propyl-hexahydro-pyrrolo[3,2-b]pyrrol-2-one hydrochloride]", "values": [{"measurement": "IC50", "setting": "[1]; HNE IC50, 118 nM purified human neutrophil elastase", "result": 33, "unit": "nM"}]}
